IC50 data for 44 compounds are collected here from patent US9126952B2, “Morpholinylquinazolines” (Merck Patent GmbH, priority 2010, dated 2015).

Bounds are passed on as bounds.

In this assay the target is DNA-PK (Homo sapiens (Human), UniProt P78527). Nature of the assay: DNA-PK/biochemical assay (FlashPlate kinase assay). As to conditions: 5 μM ATP, 90 min, room temperature; read-out: Binding DNA-PK IC50. Here is the method:
[…] To this end, 1.5 μg of the DNA-PK/protein complex and 100 ng of biotinylated substrate, such as, for example, PESQEAFADLWKK biotin-NH2 (“biotin-DNA-PK peptide”), in a total volume of 36.5 μl (34.25 mM HEPES/KOH, 7.85 mM Tris-HCl, 68.5 mM KCl, 5 μM ATP, 6.85 mM MgCl2, 0.5 mM EDTA, 0.14 mM EGTA, 0.69 mM DTT, pH 7.4), were incubated at room temperature for 90 min with 500 ng of DNA from calf thymus, 0.1 μCi of 33P-ATP and 1.8% of DMSO per well with or without the test compound. The reaction was stopped using 50 μl/well of 200 mM EDTA. After incubation for a further 30 min at room temperature, the liquid was removed. Each well was washed three times with 100 μl of 0.9% sodium chloride solution. A non-specific reaction (blank value) was determined using 10 μM of a proprietary kinase inhibitor. The radioactivity measurement was carried out by means of a TopCount. IC50 values were calculated in RS1. • Literature: Kashishian et al. (2003) Molecular Cancer Therapeutics 1257.

Consider `c1nc(N2CCCCC2)c2ccc(N3CCOCC3)cc2n1` [compound 1, 7-Morpholin-4-yl-4-piperidin-1-yl-quinazoline], for which the IC50 is less than 0.1 µM.
To `Clc1nc(N2CCCCC2)c2ccc(N3CCOCC3)cc2n1` [compound 2] belongs less than 0.1 µM.
For the compound `COc1ccc(C2CCCN(c3ncnc4cc(N5CCOCC5)ccc34)C2)cc1` (centres unmarked) [compound 3, 4-[3-(4-Methoxy-phenyl)piperidin-1-yl]-7-morpholin-4-yl-quinazoline], the IC50 was 0.1 to 0.5 µM.
As to `c1ccc(C2CCCN(c3ncnc4cc(N5CCOCC5)ccc34)C2)cc1` (centres unmarked) [compound 4, 7-Morpholin-4-yl-4-(3-phenylpiperidin-1-yl)quinazoline], the 50% inhibitory concentration (IC50) was less than 0.1 µM.
Turning to `c1ccc([C@@H]2CCCN(c3ncnc4cc(N5CCOCC5)ccc34)C2)cc1` [compound 5, 7-Morpholin-4-yl-4-((S)-3-phenyl-piperidin-1-yl)-quinazoline], the IC50 lay in the range of 0.1 to 0.5 µM.
In the case of `c1ccc([C@H]2CCCN(c3ncnc4cc(N5CCOCC5)ccc34)C2)cc1` [compound 6, 7-Morpholin-4-yl-4-((R)-3-phenyl-piperidin-1-yl)-quinazoline] it was less than 0.1 µM; in that of `c1nc(N2CCCC2)c2ccc(N3CCOCC3)cc2n1` [compound 7, 7-Morpholin-4-yl-4 pyrrolidin-1-yl-quinazoline], 0.1 to 0.5 µM.
To `c1nc(N2CCCCCC2)c2ccc(N3CCOCC3)cc2n1` [compound 8, 4-Azepan-1-yl-7-morpholin-4-yl-quinazoline] belongs 0.1 to 0.5 µM; to `Fc1ccc2[nH]cc(C3CCCN(c4ncnc5cc(N6CCOCC6)ccc45)C3)c2c1` (centres unmarked) [compound 9, 4-[3-(5-Fluoro-1H-indol-3-yl)piperidin-1-yl]-7-morpholin-4 ylquinazoline], 0.5 to 1 µM; to `c1nc(N2CCCC(CC3CCCCC3)C2)c2ccc(N3CCOCC3)cc2n1` (centres unmarked) [compound 10], 0.5 to 1 µM.
As for `c1ccc(C[C@@H]2CCCN(c3ncnc4cc(N5CCOCC5)ccc34)C2)cc1` [compound 11, 4-((S)-3-Benzyl-piperidin-1-yl)-7-morpholin-4-yl-quinazoline], the 50% inhibitory concentration (IC50) fell in the range of 0.1 to 0.5 µM.
To `CC1CCCN(c2ncnc3cc(N4CCOCC4)ccc23)C1` (centres unmarked) [compound 12, 4-(3-Methylpiperidin-1-yl)-7-morpholin-4-ylquinazoline] belongs 0.1 to 0.5 µM; to `c1ccn(CC2CCCN(c3ncnc4cc(N5CCOCC5)ccc34)C2)c1` (centres unmarked) [compound 13, 7-Morpholin-4-yl-4-(3-pyrrol-1-ylmethyl-piperidin-1-yl)-quinazoline], less than 0.1 µM.
In the case of `c1ccc2sc(C3CCCN(c4ncnc5cc(N6CCOCC6)ccc45)C3)nc2c1` (centres unmarked) [compound 14, 4-(3-Benzothiazol-2-ylpiperidin-1-yl)-7-morpholin-4-yl-quinazoline] it was less than 0.1 µM; in that of `OC1(c2ccccc2)CCCN(c2ncnc3cc(N4CCOCC4)ccc23)C1` (centres unmarked) [compound 15, 1-(7-Morpholin-4-yl-quinazoline-4-yl)-3-phenylpiperidin-3-ol], 0.5 to 1 µM.
In the case of `O=C(c1ccc(F)cc1)C1CCCN(c2ncnc3cc(N4CCOCC4)ccc23)C1` (centres unmarked) [compound 16, (4-Fluorophenyl)-[1-(7-morpholin-4-yl-quinazoline-4-yl)-piperidin-3-yl]-methanone] it was 0.1 to 0.5 µM; in that of `NC(=O)C1CCCN(c2ncnc3cc(N4CCOCC4)ccc23)C1` (centres unmarked) [compound 17, 1-(7-Morpholin-4-yl-quinazoline-4-yl)-piperidin-3-carboxamide], 0.5 to 1 µM; in that of `CCOCC1CCCN(c2ncnc3cc(N4CCOCC4)ccc23)C1` (centres unmarked) [compound 18, 4-(3-Ethoxymethyl-piperidin-1-yl)-7-morpholin-4-yl-quinazoline], 0.1 to 0.5 µM.
On to `Cc1noc(C2CCCN(c3ncnc4cc(N5CCOCC5)ccc34)C2)n1` (centres unmarked) [compound 19, 4-[3-(3-Methyl-1,2,4-oxadiazol-5-yl)-piperidin-1-yl]-7-morpholin-4-yl-quinazoline], for which the IC50 was 0.5 to 1 µM.
In the case of `O=C(C1CCCN(c2ncnc3cc(N4CCOCC4)ccc23)C1)N1CCCCC1` (centres unmarked) [compound 20, [1-(7-Morpholin-4-yl-quinazoline-4-yl)-piperidin-3-yl]-piperidin-1-yl-methanone] it was 0.1 to 0.5 µM; in that of `c1nc(N2CCCC(CN3CCOCC3)C2)c2ccc(N3CCOCC3)cc2n1` (centres unmarked) [compound 21, 7-Morpholin-4-yl-4-(3-morpholin-4-ylmethylpiperidin-1-yl)quinazoline], 0.5 to 1 µM.
Consider `COc1cccc(C2CCCN(c3ncnc4cc(N5CCOCC5)ccc34)C2)c1` (centres unmarked) [compound 22, 4-[3-(3-Methoxy-phenyl)piperidin-1-yl]-7-morpholin-4-yl-quinazoline], for which the 50% inhibitory concentration (IC50) is less than 0.1 µM.
Consider `c1cn(CC2CCCN(c3ncnc4cc(N5CCOCC5)ccc34)C2)cn1` (centres unmarked) [compound 23], for which the IC50 is less than 0.1 µM.
Turning to `c1ccc2[nH]c(C3CCCN(c4ncnc5cc(N6CCOCC6)ccc45)C3)nc2c1` (centres unmarked) [compound 24, 4-[3-(1H-Benzo-imidazol-2-yl)-piperidin-1-yl]-7-morpholin-4-yl-quinazoline], the IC50 was in the range of 0.5 to 1 µM.
Turning to `Clc1nc(N2CCCC(Cn3ccnc3)C2)c2ccc(N3CCOCC3)cc2n1` (centres unmarked) [compound 25, 2-Chloro-4-(3-imidazol-1-ylmethyl-piperidin-1-yl)-7-morpholin-4-yl-quinazoline], the half-maximal inhibitory concentration (IC50) is less than 0.1 µM.
To `c1ccc2oc(C3CCCN(c4ncnc5cc(N6CCOCC6)ccc45)C3)nc2c1` (centres unmarked) [compound 26, 4-(3-Benzoxazol-2-ylpiperidin-1-yl)-7-morpholin-4-yl-quinazoline] belongs 0.1 to 0.5 µM; to `Cc1cccc(C2CCCN(c3ncnc4cc(N5CCOCC5)ccc34)C2)c1` (centres unmarked) [compound 27, 7-Morpholin-4-yl-4-(3-m-tolylpiperidin-1-yl)quinazoline], less than 0.1 µM.
To `FC(F)(F)c1cccc(C2CCCN(c3ncnc4cc(N5CCOCC5)ccc34)C2)c1` (centres unmarked) [compound 28, 7-Morpholin-4-yl-4-[3-(3-trifluoromethyl-phenyl)piperidin-1-yl]quinazoline] belongs 0.1 to 0.5 µM; to `Cn1ccnc1CC1CCCN(c2ncnc3cc(N4CCOCC4)ccc23)C1` (centres unmarked) [compound 29, 4-[3-(1-Methyl-1H-imidazol-2-ylmethyl)-piperidin-1-yl]-7-morpholin-4-yl-quinazoline], less than 0.1 µM.
As to `Clc1nc(N2CCCC(Cn3cccc3)C2)c2ccc(N3CCOCC3)cc2n1` (centres unmarked) [compound 30, 2-Chloro-7-morpholin-4-yl-4-(3-pyrrol-1-ylmethyl-piperidin-1-yl)-quinazoline], the IC50 is less than 0.1 µM.
For `c1cnc(CC2CCCN(c3ncnc4cc(N5CCOCC5)ccc34)C2)nc1` (centres unmarked) [compound 31], the IC50 was less than 0.1 µM.
With `c1csc(CC2CCCN(c3ncnc4cc(N5CCOCC5)ccc34)C2)n1` (centres unmarked) [compound 32], the IC50 is less than 0.1 µM.
As for `c1csc(CC2CCCN(c3ncnc4cc(N5CCOCC5)ccc34)C2)c1` (centres unmarked) [compound 33], the IC50 is less than 0.1 µM.
Turning to `Cc1nc(N2CCCCC2)c2ccc(N3CCOCC3)cc2n1` [compound 34, 2-Methyl-7-morpholin-4-yl-4-piperidin-1-yl-quinazoline], the IC50 is greater than 1 µM.
To `c1ccc2sc(CC3CCCN(c4ncnc5cc(N6CCOCC6)ccc45)C3)cc2c1` (centres unmarked) [compound 35, 4-(3-Benzo[b]-thiophen-2-ylmethyl-piperidin-1-yl)-7-morpholin-4-yl-quinazoline] belongs 0.1 to 0.5 µM; to `Clc1nc(N2CCCC(Cc3nccs3)C2)c2ccc(N3CCOCC3)cc2n1` (centres unmarked) [compound 36, 2-Chloro-7-morpholin-4-yl-4-(3-thiazol-2-ylmethyl-piperidin-1-yl)-quinazoline], less than 0.1 µM; to `C1=C(c2cccs2)CN(c2ncnc3cc(N4CCOCC4)ccc23)CC1` [compound 37, 7-Morpholin-4-yl-4-(5-thiophen-2-yl-3,6-dihydro-2H-pyridin-1-yl)quinazoline], 0.1 to 0.5 µM.
In the case of `COc1cccc(C(O)C2CCCN(c3ncnc4cc(N5CCOCC5)ccc34)C2)c1` (centres unmarked) [compound 38, (3-Methoxyphenyl)-[1-(7-morpholin-4-yl-quinazolin-4-yl)-piperidin-3-yl]-methanol] it was less than 0.1 µM; in that of `COc1nc(N2CCCCC2)c2ccc(N3CCOCC3)cc2n1` [compound 39, 2-Methoxy-7-morpholin-4-yl-4-piperidin-1-yl-quinazoline], greater than 1 µM.
In the case of `c1csc(C2CCCN(c3ncnc4cc(N5CCOCC5)ccc34)C2)c1` (centres unmarked) [compound 40, 7-Morpholin-4-yl-4-(3-thiophen-2-yl-piperidin-1-yl)-quinazoline] it was less than 0.1 µM; in that of `COc1cccc(CC2CCCN(c3ncnc4cc(N5CCOCC5)ccc34)C2)c1` (centres unmarked) [compound 41, 4-[3-(3-Methoxy-benzyl)piperidin-1-yl]-7-morpholin-4-yl-quinazoline], less than 0.1 µM.
For the compound `COc1ccc(CC2CCCN(c3ncnc4cc(N5CCOCC5)ccc34)C2)cc1OC` (centres unmarked) [compound 42, 4[3-(3,4-Dimethoxy-benzyl)piperidin-1-yl]-7-morpholin-4-yl-quinazoline], the half-inhibitory concentration (IC50) was 0.1 to 0.5 µM.
To `c1ccc2sc(CC3CCCN(c4ncnc5cc(N6CCOCC6)ccc45)C3)nc2c1` (centres unmarked) [compound 43, 4-(3-Benzothiazol-2-ylmethylpiperidin-1-yl)-7-morpholin-4-yl-quinazoline] belongs 0.1 to 0.5 µM; to `c1nc(N2CCCC(Cc3ccsc3)C2)c2ccc(N3CCOCC3)cc2n1` (centres unmarked) [compound 44], less than 0.1 µM.
